According to US11903983B2, “Composition comprising new Lactobacillus salivarius strains and method for the prevention and treatment of otitis and upper respiratory infections” (priority 2018, dated 2024):
Values after ≈ are worked out from the molar mass of the structure shown.

Tested on: L. salivarius PS7
Assay: Antibiogram: MIC by VetMIC microdilution and E-test
Type: cell-based, Lactobacillus salivarius
Conditions: for MIC: Ligilactobacillus salivarius, PS7, read-out: MICs (L. salivarius PS7); for MICs (L. salivarius PS7): antibiotic against L. salivarius PS7
Procedure: The suspension was further adjusted to 3×10^5 CFU/ml with LSM, and 100 μl were inoculated to wells of microtiter VetMIC plates for lactic acid bacteria (National Veterinary Institute of Sweden, Uppsala, Sweden). The plates were incubated at 37° C. for 48 h and the MIC was defined as the lowest concentration at which no growth was observed.
Parallel, minimum inhibitory concentrations (MICs) were also determined by the E-test (AB BIODISK, Solna, Sweden) following the instructions of the manufacturer. Briefly, after overnight incubation, agar cultures were checked for purity. For inoculums preparation, individual colonies were suspended in a sterile glass culture tube containing 5 ml sterile saline (0.85% NaCl solution) until a density corresponding to a McFarland (McF) standard of 0.5 was obtained. A sterile cotton swab was dipped into the standardized inoculum and used to inoculate an agar plate. Inoculated plates were allowed to dry for approximately 15 min before application of the E-test strips with preformed antimicrobial gradients. […] For bacteriostatic agents (e.g., tetracycline, erythromycin and clindamycin), the MIC was read at the point where growth was inhibited by 80% (i.e., the first point of significant inhibition as judged by the naked eye).
Results from the different antibiotic susceptibility tests were interpreted according to the cut-off levels proposed by the European Food Safety Authority (EFSA, 2012).

Row | Compound | MIC [µg/mL] | MICs (L. salivarius PS7) [µg/mL] | antibiotic susceptibility of L. salivarius PS7 according to EFSA cut-off levels
1 | NC[C@H]1O[C@H](O[C@H]2[C@H](O)[C@@H](O[C@H]3O[C@H](CO)[C@@H](O)[C@H](N)[C@H]3O)[C@H](N)C[C@@H]2N)[C@H](O)[C@@H](O)[C@@H]1O [Kanamycin] | 128 (≈ 264 µM) | – | –
2 | CN(C)[C@@H]1C(=O)C(C(N)=O)=C(O)[C@@]2(O)C(=O)C3=C(O)c4c(O)cccc4[C@@](C)(O)[C@H]3C[C@@H]12 [Tetracyclin] | – | 2 | –
3 | O=C(N[C@H](CO)[C@H](O)c1ccc([N+](=O)[O-])cc1)C(Cl)Cl [Chloramphenicol] | 2 (≈ 6.19 µM) | – | –
4 | [H]/N=C(/N)N[C@H]1[C@H](O)[C@@H](O)[C@H](O[C@@H]2O[C@@H](C)[C@](O)(C=O)[C@H]2O[C@@H]2O[C@@H](CO)[C@H](O)[C@@H](O)[C@@H]2NC)[C@@H](N/C(N)=N\[H])[C@@H]1O [Streptomycin] | 32 (≈ 55 µM) | – | –
5 | Gentamicin | – | 0.12 | –
6 | Penicillin | – | 0.25 | –
7 | CC(=O)NC[C@H]1CN(c2ccc(N3CCOCC3)c(F)c2)C(=O)O1 [Linezolid] | 1 (≈ 2.96 µM) | – | –
8 | CC1(C)S[C@@H]2[C@H](NC(=O)[C@H](N)c3ccccc3)C(=O)N2[C@H]1C(=O)O [Ampicillin] | 0.5 (≈ 1.43 µM) | – | –
9 | CN[C@H](CC(C)C)C(=O)N[C@H]1C(=O)N[C@@H](CC(N)=O)C(=O)N[C@H]2C(=O)N[C@H]3C(=O)N[C@H](C(=O)N[C@H](C(=O)O)c4cc(O)cc(O)c4-c4cc3ccc4O)[C@H](O)c3ccc(c(Cl)c3)Oc3cc2cc(c3O[C@@H]2O[C@H](CO)[C@@H](O)[C@H](O)[C@H]2O[C@H]2C[C@](C)(N)[C@H](O)[C@H](C)O2)Oc2ccc(cc2Cl)[C@H]1O [Vancomycin] | > 128 | – | intrinsically resistant
10 | CCC[C@@H]1C[C@@H](C(=O)N[C@@H]([C@H]2O[C@H](SC)[C@H](O)[C@@H](O)[C@H]2O)[C@H](C)Cl)N(C)C1 [Clindamycin] | 0.5 (≈ 1.18 µM) | – | –
11 | CC[C@H]1OC(=O)[C@H](C)[C@@H](O[C@H]2C[C@@](C)(OC)[C@@H](O)[C@H](C)O2)[C@H](C)[C@@H](O[C@@H]2O[C@H](C)C[C@H](N(C)C)[C@H]2O)[C@](C)(O)C[C@@H](C)C(=O)[C@H](C)[C@@H](O)[C@]1(C)O [Erythromycin] | 0.12 (≈ 0.164 µM) | – | –
